Experimental data reported in ChEMBL document CHEMBL1201862, “PubChem BioAssay data set” (2004).
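1) Cells in 96-well plates. 2) Compound, 48 h, 5 concentrations. 3) Linear interpolation between surrounding doses. 4) Unreached endpoint = highest concentration. GI50 is the concentration that inhibits growth by half.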 The source made the active and inactive calls. No stated cut-off is given here; in the data, active = GI50 up to about 1.1 µM and inactive = higher.

Assays:
Experiment in all cases: growth of human tumour cells (NCI), 48 h
SF-539 = tested on: SF-539
UACC-62 = tested on: UACC-62
SNB-75 = tested on: SNB-75
TK-10 = tested on: TK-10
NCI-H23 = tested on: NCI-H23
MOLT-4 = tested on: MOLT-4
HOP-92 = tested on: HOP-92
Malme-3M = tested on: Malme-3M
CAKI-1 = tested on: CAKI-1
UO-31 = tested on: UO-31
SK-MEL-28 = tested on: SK-MEL-28
LOX IMVI = tested on: LOX IMVI
OVCAR-5 = tested on: OVCAR-5
SR = tested on: SR
HCC 2998 = tested on: HCC 2998
NCI-H460 = tested on: NCI-H460
SNB-19 = tested on: SNB-19

Measured: GI50

O=C1CCC(c2ccccc2)C(O)(C(=O)O)C1 (centres undefined)
inactive: SF-539 > 100 µM | UACC-62 > 100 µM | SNB-75 > 100 µM | TK-10 > 100 µM | NCI-H23 > 100 µM | MOLT-4 > 100 µM | HOP-92 > 100 µM | Malme-3M > 100 µM | CAKI-1 > 100 µM | UO-31 > 100 µM | SK-MEL-28 > 100 µM | LOX IMVI > 100 µM | OVCAR-5 > 100 µM | SR > 100 µM | HCC 2998 > 100 µM | NCI-H460 > 100 µM | SNB-19 > 100 µM

COc1cccc(/C=C(\NC(C)=O)c2nc3cc(Cl)ccc3[nH]2)c1
inactive: SF-539 > 100 µM | UACC-62 > 100 µM | TK-10 > 100 µM | NCI-H23 > 100 µM | MOLT-4 > 100 µM | HOP-92 59.3 µM | Malme-3M > 100 µM | CAKI-1 > 100 µM | UO-31 > 100 µM | SK-MEL-28 > 100 µM | OVCAR-5 > 100 µM | SR > 100 µM | HCC 2998 > 100 µM | SNB-19 > 100 µM

O=C(Nc1cccc(Cc2cccc(NC(=O)c3ccccc3)c2)c1)c1ccccc1
inactive: SF-539 12.6 µM | UACC-62 23.8 µM | SNB-75 10.5 µM | TK-10 > 100 µM | NCI-H23 33.1 µM | MOLT-4 > 100 µM | HOP-92 9.77 µM | Malme-3M 23.3 µM | CAKI-1 16.9 µM | UO-31 12.7 µM | SK-MEL-28 41.7 µM | LOX IMVI > 100 µM | OVCAR-5 > 100 µM | SR > 100 µM | HCC 2998 > 100 µM | NCI-H460 36.1 µM | SNB-19 25.4 µM

CC(=O)/C(=C\c1cccc([N+](=O)[O-])c1)C(=O)Nc1ccccc1C
inactive: SF-539 > 100 µM | UACC-62 59.2 µM | TK-10 > 100 µM | NCI-H23 > 100 µM | MOLT-4 39.5 µM | HOP-92 > 100 µM | Malme-3M > 100 µM | CAKI-1 > 100 µM | UO-31 > 100 µM | SK-MEL-28 > 100 µM | LOX IMVI 60.1 µM | OVCAR-5 > 100 µM | SR 33.6 µM | HCC 2998 75.5 µM | NCI-H460 > 100 µM | SNB-19 94.4 µM

Cc1c(Cl)ccc2c1NC(=O)C2(O)CC(=O)c1cccc2ccccc12 (centres undefined)
inactive: SF-539 > 100 µM | UACC-62 36.7 µM | SNB-75 > 100 µM | TK-10 > 100 µM | NCI-H23 > 100 µM | MOLT-4 35.2 µM | Malme-3M > 100 µM | CAKI-1 39.4 µM | UO-31 > 100 µM | SK-MEL-28 > 100 µM | LOX IMVI 96.6 µM | OVCAR-5 > 100 µM | SR 24.1 µM | HCC 2998 > 100 µM | NCI-H460 59.7 µM | SNB-19 90.8 µM

COc1ccc([Se]c2ccc(OC)cc2OC)c(OC)c1
inactive: SF-539 22.6 µM | UACC-62 11.1 µM | SNB-75 9.02 µM | TK-10 28.4 µM | NCI-H23 29.9 µM | MOLT-4 5.36 µM | HOP-92 2.2 µM | Malme-3M 14.9 µM | CAKI-1 19.5 µM | UO-31 18 µM | SK-MEL-28 15.8 µM | LOX IMVI 24.6 µM | OVCAR-5 > 100 µM | SR 6.22 µM | NCI-H460 19.6 µM | SNB-19 86.7 µM

O=c1c2cccnc2ncn1CCCN1CCCC1
inactive: SF-539 > 100 µM | UACC-62 > 100 µM | SNB-75 > 100 µM | TK-10 > 100 µM | NCI-H23 > 100 µM | MOLT-4 > 100 µM | HOP-92 > 100 µM | CAKI-1 > 100 µM | UO-31 > 100 µM | SK-MEL-28 > 10 µM | LOX IMVI > 100 µM | OVCAR-5 > 100 µM | SR > 100 µM | NCI-H460 > 100 µM | SNB-19 > 100 µM

CNCC(=O)Nc1ccc2c(c1)C(=O)c1ccc(NC(=O)CNC)cc1C2=O
inactive: SF-539 3.1 µM | UACC-62 10.3 µM | SNB-75 13.6 µM | TK-10 17.3 µM | NCI-H23 13.4 µM | MOLT-4 2.52 µM | HOP-92 1.78 µM | Malme-3M 3.27 µM | CAKI-1 5.65 µM | UO-31 11.8 µM | SK-MEL-28 2.54 µM | LOX IMVI 1.68 µM | OVCAR-5 17.5 µM | SR 1.96 µM | HCC 2998 4.72 µM | NCI-H460 3.77 µM

C=CC1=C(C)c2cc3[nH]c(cc4nc(cc5[nH]c(cc1n2)c(C)c5CCC(=O)N(CC)CC)C(CCC(=O)N(CC)CC)=C4C)c(C)c3C=C
inactive: SF-539 > 100 µM | UACC-62 > 100 µM | SNB-75 29.4 µM | TK-10 > 100 µM | NCI-H23 > 100 µM | MOLT-4 > 100 µM | HOP-92 6.04 µM | Malme-3M > 100 µM | UO-31 > 100 µM | SK-MEL-28 > 100 µM | LOX IMVI > 100 µM | OVCAR-5 74.5 µM | SR > 100 µM | HCC 2998 > 100 µM | NCI-H460 > 100 µM

CSc1nc(NC2OC(COC(C)=O)C(OC(C)=O)C(OC(C)=O)C2OC(C)=O)c(/N=C/C=N/c2c(NC3OC(COC(C)=O)C(OC(C)=O)C(OC(C)=O)C3OC(C)=O)nc(SC)[nH]c2=O)c(=O)[nH]1 (centres undefined)
inactive: SF-539 > 100 µM | UACC-62 > 100 µM | SNB-75 > 100 µM | TK-10 > 100 µM | NCI-H23 > 100 µM | HOP-92 > 100 µM | Malme-3M > 100 µM | UO-31 > 100 µM | SK-MEL-28 > 100 µM | LOX IMVI > 100 µM | OVCAR-5 > 100 µM | SR > 100 µM | HCC 2998 > 100 µM | NCI-H460 > 100 µM | SNB-19 > 100 µM

O=C1CCC[C@]2(CCCC(=O)N2)C1
inactive: SF-539 > 100 µM | UACC-62 > 100 µM | SNB-75 77.4 µM | TK-10 > 100 µM | NCI-H23 > 100 µM | MOLT-4 > 100 µM | HOP-92 > 100 µM | Malme-3M > 100 µM | CAKI-1 > 100 µM | UO-31 > 100 µM | SK-MEL-28 > 100 µM | LOX IMVI > 100 µM | OVCAR-5 > 100 µM | SR > 100 µM | HCC 2998 > 100 µM | NCI-H460 > 100 µM | SNB-19 > 100 µM

Cc1ccc(-c2cc(-c3ccco3)c(C#N)c(=O)n2C2OC(OC(=O)c3ccccc3)C(OC(=O)c3ccccc3)C2OC(=O)c2ccccc2)cc1 (centres undefined)
inactive: SF-539 > 100 µM | UACC-62 > 100 µM | SNB-75 > 100 µM | TK-10 96.2 µM | MOLT-4 > 100 µM | HOP-92 24.7 µM | Malme-3M > 100 µM | CAKI-1 > 100 µM | UO-31 > 100 µM | SK-MEL-28 > 100 µM | LOX IMVI > 100 µM | OVCAR-5 > 100 µM | SR > 100 µM | HCC 2998 > 100 µM | NCI-H460 > 100 µM
